We go through ten compounds from patent publication US4330549A, “Coumarins connected via an oxyalkyl group with a piperidine ring having anti-allergic action” (Boehringer Mannheim GmbH, priority 1979, dated 1982).

SMILES strings stand for the structures.

This test deals with passive cutaneous anaphylactic reaction (PCA). Put plainly: Inhibition of passive cutaneous anaphylaxis (PCA) in rats, reaginic antibody to egg albumin. It is filed as in vivo, rat. Particulars: for inhibition in vivo at 3 mg/kg: dose 3.0 mg/kg (table head: p.o.; method b438: intravenously immediately before the antigen).
The mark [1] stands for this setting: Rattus norvegicus, po, rats, 6 animals per dose.

Usually inhibition in vivo stands for the drop in the measured response relative to a control, in per cent. Low values mean a response near the control, high ones a response far below the control. Under setting [1], `Cc1c(C)c2ccc(OCCCN3CCC(NC(=O)c4ccc(F)cc4)CC3)cc2oc1=O` [Example 2a, 3,4-Dimethyl-7-{3-[4-(4-fluoro-benzamido)-piperidino]-propoxy}-coumarin] displayed an inhibition in vivo at 3 mg/kg of 59%. As to `Cc1c(C)c2ccc(OCCCN3CCC(NC(=O)c4ccc(Cl)cc4)CC3)cc2oc1=O` [Example 6, 7-{3-[4-(4-Chlorobenzamido)-piperidino]-propoxy}-3,4-dimethylcoumarin], under setting [1], testing at 3 mg/kg gave an inhibition in vivo of 30%. Take `Cc1c(C)c2ccc(OCCCN3CCC(NC(=O)c4cccs4)CC3)cc2oc1=O` [Example 7b]: 3 mg/kg produced 23% inhibition in vivo under setting [1]. The compound `CCN(CC)C(=O)N1CCN(C)CC1` [Diethylcarbamazin, 1-diethylcarbamoyl-4-methylpiperazine, reference compound] registered an inhibition in vivo at 100 mg/kg (Rattus norvegicus, po, dose 100.0 mg/kg (table head: p.o.; method b438: intravenously immediately before the antigen), rats, 6 animals per dose, comparison compound) of 47%. Further, the “times more substance that must be used than of 7-[3-(4-benzamido-piperidino)-propoxy]-3,4-dimethylcoumarin for comparable inhibition of the passive cutaneous anaphylactoid reaction” value (relative to 7-[3-(4-benzamido-piperidino)-propoxy]-3,4-dimethylcoumarin (Example 1), PCA test in vivo in rats) is reported as “about 40 times”.

With `Cc1cc(=O)[nH]c2ccc(OCCCN3CCC(NC(=O)c4ccccc4)CC3)cc12` [Example 8, 6-[3-(4-Benzamido-piperidino)-propoxy]-4-methyl-2-oxo-1,2-dihydroquinoline], under setting [1], the inhibition in vivo at 3 mg/kg was 34%. Same read-out and setting: for `Cc1cc(=O)n(C)c2ccc(OCCCN3CCC(NC(=O)c4ccccc4)CC3)cc12` [Example 10, 6-[3-(4-Benzamido-piperidino)-propoxy]-1,4-dimethyl-2-oxo-1,2-dihydroquinoline] the value was 54%; for `COc1ccc(C(=O)NC2CCN(CCCOc3ccc4c(C)c(C)c(=O)oc4c3)CC2)cc1` [Example 2b, 3,4-Dimethyl-7-{3-[4-(4-methoxy-benzamido)-piperidino]-propoxy}-coumarin], 36%; for `Cc1cc(=O)oc2ccc(OCCCN3CCC(NC(=O)c4ccccc4)CC3)cc12` [Example 4a, 6-[3-(4-Benzamido-piperidino)-propoxy]-4-methyl-coumarin], 61%. The same measure, in the same setting: as for `Cc1c(C)c2ccc(OCCCN3CCC(NC(=O)c4ccc(C(C)(C)C)cc4)CC3)cc2oc1=O` [Example 2d, 7-{3-[4-(4-t.-Butyl-benzamido)-piperidino]-propoxy}-3,4-dimethyl-coumarin], the figure is 52%. Same read-out and setting: as for `Cc1c(C)c2ccc(OCCCN3CCC(NC(=O)c4ccccc4)CC3)cc2oc1=O` [Example 1, 7-[3-(4-Benzamido-piperidino)-propoxy]-3,4-dimethylcoumarin], the figure is 50%.
